Earlier results as cited in paper PMC6311893, “Computational prediction of plasma protein binding of cyclic peptides from small molecule experimental data using sparse modeling techniques” (BMC Bioinformatics, 2018).

test system: plasma protein; conditions: fraction bound to plasma protein; small molecule dataset, sheet 1-SM (Set Dte = test, Dtr = training); ref Ingle et al.; cited from earlier work

Row | Structure (SMILES) | PPB (fb)
1 | CC(=O)N1CCN(c2ccc(OCC3COC(Cn4ccnc4)(c4ccc(Cl)cc4Cl)O3)cc2)CC1 (stereo not shown) [ketoconazole] | 0.92
2 | C[C@@H]1CN([C@H]2CC[C@](C#N)(c3ccc(F)cc3)CC2)CC[C@]1(C(=O)O)c1ccccc1 [levocabastine] | 0.55
3 | CCn1cc(C(=O)O)c(=O)c2cc(F)c(N3CCNC(C)C3)c(F)c21 (stereo not shown) [lomefloxacin] | 0.12
4 | Cc1cccc(C)c1OCC(=O)N[C@@H](Cc1ccccc1)[C@@H](O)C[C@H](Cc1ccccc1)NC(=O)[C@H](C(C)C)N1CCCNC1=O [lopinavir] | 0.99
5 | NC(C(=O)NC1C(=O)N2C(C(=O)O)=C(Cl)CCC12)c1ccccc1 (stereo not shown) [loracarbef] | 0.25
6 | CCC1(c2ccccc2)NC(=O)N(C)C1=O (stereo not shown) [mephenytoin] | 0.4

same assay, conditions: fraction bound to plasma protein; small molecule dataset, sheet 1-SM; ref Ingle et al.; cited from earlier work

Row | Structure (SMILES) | PPB (fb)
7 | CCC(=O)O[C@@H](O[P@](=O)(CCCCc1ccccc1)CC(=O)N1C[C@H](C2CCCCC2)C[C@H]1C(=O)O)C(C)C [fosinopril] | 0.95
8 | O=C1NC(c2ccccc2)(c2ccccc2)C(=O)N1COP(=O)(O)O [fosphenytoin] | 0.95
9 | CC(=O)O[C@H]1C[C@@]2(C)[C@@H](C[C@@H](O)[C@H]3[C@@]4(C)CC[C@@H](O)[C@@H](C)[C@@H]4CC[C@@]32C)/C1=C(\CCC=C(C)C)C(=O)O [fusidic acid] | 0.95
10 | COc1ccc(CCN(C)CCCC(C#N)(c2cc(OC)c(OC)c(OC)c2)C(C)C)cc1OC (stereo not shown) [gallopamil] | 0.9
11 | Cc1ccc(S(=O)(=O)NC(=O)N[C@H]2[C@H]3CC[C@@](C)([C@H]2O)C3(C)C)cc1 [glibornuride] | 0.95
12 | Cc1ccc(S(=O)(=O)NC(=O)NN2CC3CCCC3C2)cc1 (stereo not shown) [gliclazide] | 0.91
13 | COc1ccc2c(c1)C(=O)N(CCc1ccc(S(=O)(=O)NC(=O)NC3CCCCC3)cc1)C(=O)C2(C)C [gliquidone] | 0.99
14 | Cc1cc(C(=O)NCCc2ccc(S(=O)(=O)NC(=O)NN3CCCCCC3)cc2)no1 [glisoxepide] | 0.93
15 | COCCOc1cnc(NS(=O)(=O)c2ccccc2)nc1 [glymidine] | 0.8
16 | COC1=CC(=O)C[C@@H](C)[C@]12Oc1c(Cl)c(OC)cc(OC)c1C2=O [griseofulvin] | 0.8
17 | CC/C=C/C/C=C/C/C=C/C/C=C/C=C/C(O)CCCC(=O)O (stereo not shown) [hepe] | 0.99
18 | NS(=O)(=O)c1cc2c(cc1C(F)(F)F)NCNS2(=O)=O [hydroflumethiazide] | 0.75
19 | CC(C)(O)C(=O)Nc1ccc([N+](=O)[O-])c(C(F)(F)F)c1 [hydroxyflutamide] | 0.93
20 | COc1cc(Cc2cnc(N)nc2N)c2c(c1OC)OC(C1CC1)C=C2 (stereo not shown) [iclaprim] | 0.93
21 | COC1=C(OC)C(=O)C(CCCCCCCCCCO)=C(C)C1=O [idebenone] | 0.9
22 | CCOC(=O)[C@H](CCc1ccccc1)N[C@@H](C)C(=O)N1C(=O)N(C)C[C@H]1C(=O)O [imidapril] | 0.2
23 | CC1Cc2ccccc2N1NC(=O)c1ccc(Cl)c(S(N)(=O)=O)c1 (stereo not shown) [indapamide] | 0.76
24 | C1=Cc2cccc(OCC3CNCCO3)c2C1 (stereo not shown) [indeloxazine] | 0.94
25 | NS(=O)(=O)c1ccc(S(=O)(=O)Nc2cccc3c(Cl)c[nH]c23)cc1 [indisulam] | 0.98
26 | CC(C(=O)O)c1ccc(N2Cc3ccccc3C2=O)cc1 (stereo not shown) [indoprofen] | 0.99
27 | CCC(Cc1c(I)cc(I)c(N)c1I)C(=O)O (stereo not shown) [iopanoic acid] | 0.79
28 | CC1=C(/C=C/C(C)=C/C=C/C(C)=C\C(=O)O)C(C)(C)CCC1 [isotretinoin] | 0.95
29 | CC(COc1ccccc1)NC(C)C(O)c1ccc(O)cc1 (stereo not shown) [isoxsuprine] | 0
30 | CN1CCC(=C2c3ccccc3CC(=O)c3sccc32)CC1 [ketotifen] | 0.8

Row | Structure (SMILES) | PPB (fb)
31 | Nc1nnc(-c2cccc(Cl)c2Cl)c(N)n1 [lamotrigine] | 0.55
32 | Cc1oncc1C(=O)Nc1ccc(C(F)(F)F)cc1 [leflunomide] | 0.99
33 | Nc1nc2c(c(=O)[nH]1)N(C=O)C(CNc1ccc(C(=O)N[C@@H](CCC(=O)O)C(=O)O)cc1)CN2 (stereo partly shown) [leucovorin] | 0.91
34 | CC[C@@H](C(N)=O)N1CCCC1=O [levetiracetam] | 0.05
35 | N[C@@H](Cc1cc(I)c(Oc2ccc(O)c(I)c2)c(I)c1)C(=O)O [liothyronine] | 0.98
36 | CN(CCCN1c2ccccc2CCc2ccccc21)CC(=O)c1ccc(Cl)cc1 [lofepramine] | 0.99
37 | CC(Oc1c(Cl)cccc1Cl)C1=NCCN1 (stereo not shown) [lofexidine] | 0.6
38 | CC(C(=O)O)c1ccc(CC2CCCC2=O)cc1 (stereo not shown) [loxoprofen] | 0.96
39 | C#C[C@]1(O)CC[C@H]2[C@@H]3CCC4=CCCC[C@@H]4[C@H]3CC[C@@]21C [lynestrenol] | 0.96
40 | CCN(CCCCOC(=O)c1ccc(OC)c(OC)c1)C(C)Cc1ccc(OC)cc1 (stereo not shown) [mebeverine] | 0.75
41 | CN1CCc2c(c3ccccc3n2Cc2ccccc2)C1 [mebhydrolin] | 0.04
42 | Cc1cccc(Nc2ccccc2C(=O)O)c1C [mefenamic acid] | 0.99
43 | OC(c1cc(C(F)(F)F)nc2c(C(F)(F)F)cccc12)C1CCCCN1 (stereo not shown) [mefloquine] | 0.97
44 | CN(CC1(C)CCCO1)S(=O)(=O)c1ccc(Cl)c(S(N)(=O)=O)c1 (stereo not shown) [mefruside] | 0.65
45 | CC1CCN(CCCC(=O)c2ccc(F)cc2)CC1 [melperone] | 0.5
46 | Cc1cc2c(OCC(O)CNC(C)C)cccc2[nH]1 (stereo not shown) [mepindolol] | 0.5
47 | c1ccc2c(c1)Sc1ccccc1N2CC1CN2CCC1CC2 (stereo not shown) [mequitazine] | 0.9
48 | Nc1ccc(O)c(C(=O)O)c1 [mesalamine] | 0.45
49 | C#C[C@]1(O)CC[C@H]2[C@@H]3CCc4cc(OC)ccc4[C@H]3CC[C@@]21C [mestranol] | 0.98
50 | CN1C(=O)CC(C)(c2ccccc2)C1=O (stereo not shown) [mesuximide] | 0
51 | CC(=O)/N=c1/sc(S(N)(=O)=O)nn1C [methazolamide] | 0.55
52 | COc1ccc2c(c1)N(C[C@H](C)CN(C)C)c1ccccc1S2 [methotrimeprazine] | 0.98
53 | COc1c2occc2cc2ccc(=O)oc12 [methoxsalen] | 0.83
54 | CO[C@]1(CC[C@@H](C)CO[C@@H]2O[C@H](CO)[C@@H](O)[C@H](O)[C@H]2O)O[C@H]2C[C@H]3[C@@H]4CC=C5C[C@@H](O[C@@H]6O[C@H](CO)[C@@H](O[C@@H]7O[C@@H](C)[C@H](O)[C@@H](O)[C@H]7O)[C@H](O)[C@H]6O[C@@H]6O[C@@H](C)[C@H](O)[C@@H](O)[C@H]6O)CC[C@]5(C)[C@H]4CC[C@]3(C)[C@H]2[C@@H]1C [methyl protodioscin] | 0.84

same assay, conditions: human, plasma; cited from earlier work

Row | Structure (SMILES) | PPB (fb)
55 | CC(C)C[C@H](NC(=O)[C@@H](COC(C)(C)C)NC(=O)[C@H](Cc1ccc(O)cc1)NC(=O)[C@H](CO)NC(=O)[C@H](Cc1c[nH]c2ccccc12)NC(=O)[C@H](Cc1cnc[nH]1)NC(=O)[C@@H]1CCC(=O)N1)C(=O)N[C@@H](CCCNC(=N)N)C(=O)N1CCC[C@H]1C(=O)NNC(N)=O [goserelin] | 0.2

same assay, conditions: plasma; cited from earlier work

Row | Structure (SMILES) | PPB (fb)
56 | C[C@]12CCC(=O)C(O)=C1CC[C@@H]1[C@@H]2CC[C@]2(C)C(=O)CC[C@@H]12 [formestane] | 0.84
57 | COc1ccc(CC(C)NCC(O)c2ccc(O)c(NC=O)c2)cc1 (stereo not shown) [formoterol] | 0.62
58 | O=C(O)c1cc(O)c(O)c(O)c1 [gallic acid] | 0.32
59 | CCC1(c2ccccc2)CCC(=O)NC1=O (stereo not shown) [glutethimide] | 0.5
60 | C=C(Br)CC1(C(C)C)C(=O)NC(=O)NC1=O [ibomal] | 0.34
61 | CCC(C)C1OC2(CCC1C)CC1CC(C/C=C(\C)C(OC3CC(OC)C(OC4CC(OC)C(O)C(C)O4)C(C)O3)C(C)/C=C/C=C3\COC4C(O)C(C)=CC(C(=O)O1)C34O)O2 (stereo not shown) [ivermectin] | 0.93
62 | CCC(OC(C)=O)C(CC(C)N(C)C)(c1ccccc1)c1ccccc1 (stereo not shown) [laam] | 0.8
63 | CN1CC[C@]23CCCC[C@H]2[C@H]1Cc1ccc(O)cc13 [levorphanol] | 0.4
64 | CCN(CC)C(=O)N[C@H]1C=C2c3cccc4[nH]cc(c34)C[C@H]2N(C)C1 [lisuride] | 0.7
65 | CCN(CC)C(=O)[C@@H]1C=C2c3cccc4[nH]cc(c34)C[C@H]2N(C)C1 [lysergide] | 0.9
66 | CN1CCN=C(c2ccccc2)c2cc(Cl)ccc21 [medazepam] | 0.99
67 | COC1C(C)OC(OC2C=C3CCC4C(CCC5(C)C(c6ccc(=O)oc6)CCC45O)C3(C)CC2)C(O)C1O (stereo not shown) [meproscillarin] | 0.96
68 | COc1cc(CCN)cc(OC)c1OC [mescaline] | 0.15
69 | CO [methanol] | 0
70 | Cc1ccccc1-n1c(C)nc2ccccc2c1=O [methaqualone] | 0.85
71 | CNC(C)Cc1ccc2c(c1)OCO2 (stereo not shown) [methylenedioxymethamphetamine] | 0.65
72 | CC[C@@H](CO)NC(=O)[C@@H]1C=C2c3cccc4[nH]cc(c34)C[C@H]2N(C)C1 [methylergonovine] | 0.35
73 | CCC1(c2ccccc2)C(=O)NC(=O)N(C)C1=O (stereo not shown) [methylphenobarbital] | 0.5
